According to patent US8536120B2 (The Administrators of The Tulane Educational Fund, priority 2006, dated 2013):

Target: Ghrelin/GHRP/GHS Receptor (Rattus norvegicus, UniProt O08725)
Assay: In vitro pituitary incubation method: GH release from isolated pituitary glands, peptide alone or plus stimulator
Assay type: cell-based
Parameters: from cell culture of pituitary cells; endogenous in cells; host or cells: dispersed primary rat anterior pituitary cells, 4 days in culture
Conditions: Table 12; Stimulator *S = Tyr-DTrp-Ala-Trp-Dphe-NH2 alone 0.3 μg/ml
Procedure: The peptides were synthesized by the solid phase method and purified by HPLC. GH was determined by Radioimmunoassay (RIA).
Hormonal activities were obtained from in vitro studies using pituitaries of 20 day old CD-1 strain Sprague Dawley female rats. Two pituitaries were incubated for a total of 4-6 hours. Medium was removed each hour for RIA of GH level and fresh medium was added again. After two one hour preincubation periods (P1-P2), the vehicle/peptides were added to two one hour incubations (I3-I4). Peptide activity was calculated as the change in the hormonal level (delta) between I3+I4 and P2. For antagonist activity, the incubation was continued for 2 additional hours (I5-I6) where both the peptide and a stimulator of GH secretion was added and the antagonist activity was calculated as the change in the hormonal level (delta) between I5+I6 and P2. The peptides were assayed in triplicate and the hormone was assayed in duplicate. Each value recorded represents the mean of 6. The GH RIA reagents were distributed by the NIH. Control data was collected from isolated pituitary glands treated with only the corresponding vehicle in the absence of peptide or stimulator. Control stimulated data was collected from isolated pituitary glands treated with stimulator alone in the absence of any peptide.

Ghrelin/GHRP/GHS Receptor, sequence (O08725 whole entry): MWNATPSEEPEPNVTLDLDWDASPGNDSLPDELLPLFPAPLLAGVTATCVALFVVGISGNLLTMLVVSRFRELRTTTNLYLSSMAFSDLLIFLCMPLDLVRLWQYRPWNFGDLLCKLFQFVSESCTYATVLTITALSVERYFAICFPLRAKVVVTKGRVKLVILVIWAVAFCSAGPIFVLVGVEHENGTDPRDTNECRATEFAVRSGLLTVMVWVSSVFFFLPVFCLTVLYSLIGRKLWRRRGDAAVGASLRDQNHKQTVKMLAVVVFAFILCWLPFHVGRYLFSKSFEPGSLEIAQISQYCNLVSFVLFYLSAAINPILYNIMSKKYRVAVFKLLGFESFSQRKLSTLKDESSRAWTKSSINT

Stimulated Control GH release: 2218 ± 194 ng/mL
Substance: Tyr-DTrp-Ala-Trp-Dphe-NH2
